Data reported in patent US20060287397A1, “Dl-hydroxy-alkyl-phenylamides having anticonvulsive activity” (priority 2002, published 2006).
Like-named read-outs stand apart in the source and are kept apart here.

Experiments:
[1] = tested on: Seizures induced by pentylenetetrazol (PTZ) in mice; assay: Pentylenetetrazol test (anticonvulsant activity); format: in vivo; settings: for ED50: Mus musculus, ip, 0.5 h; for ED50 / ED50 PTZ: male CF-1 mice, compound i.p., pentylenetetrazol 100 mg kg^−1 i.p. 30 min after, end point suppression of clonic seizures and death; for anticonvulsant activity relative to that of the non-halogenated compounds: pentylenetetrazol test, mice, from Table 1
Description: Male albino mice CF-1 strain (National Institute of Virology, Mexico City) weighing 18-25 g were housed in groups of 20, at room temperature (20-24° C.), with tap water and food (pellet type Blue Bonnet) ad libitum, with a 12-h light-dark cycle. DL-2-hydroxy-2-phenyl butyramide, DL-3-hydroxy-3-phenyl pentanamide, DL-4-hydroxy-4-phenyl hexanamide and pentylenetetrazol were dissolved in water and compounds 1-10 were dissolved in a 30% polyethyleneglycol-400 solution. All the compounds used were administered intraperitoneally (i.p.). The convulsant dose of pentylenetetrazol inducing seizures and death in 100% of mice (CD100) was determined and used in the test. CD100 value obtained was 100 mg kg^1. To determine the dose-response curves five separate groups of 10-20 mice were dosed i.p. with the test compounds, and pentylenetetrazol, 100 mg kg^−1, i.p., was administered at 30 min after. The suppression of clonic seizures and death was considered the end point of the test. […] The ED50 and 95% confidence intervals were calculated by the method of Litchfield and Wilcoxon (Table 1). See Litchfield et al., J. Pharmacol. Exp. Ther. 96, 99 (1949).

hippocampal kindling [2] = settings: cats; cited from earlier work
[3] = tested on: seizures provoked by pentylenetetrazole, bicuculline, 4-aminopyridine, thiosemicarbazide and maximal electroshock; settings: mice; cited from earlier work
hippocampal kindling [4] = settings: rats; cited from earlier work
focal spike activity = settings: genetic absence epilepsy rats of the Strasbourg model; cited from earlier work
[5] = tested on: γ-aminobutyric acid withdrawal syndrome; settings: rats; cited from earlier work

Structure (SMILES)	ED50 [1] [mg/kg]	anticonvulsant activity relative to that of the non-halogenated compounds [1]	also measured
CCC(O)(C(N)=O)c1cc(C(F)(F)F)cc(C(F)(F)F)c1 (racemic) [Compound 1, DL-2-hydroxy-2-(3′,5′-bistrifluoromethylphenyl) butyramide]	10	more than fivefold, sixfold or sevenfold	–
CCC(O)(C(N)=O)c1ccc(C(F)(F)F)cc1 (racemic) [Compound 2, DL-2-hydroxy-2-(4′-trifluoromethylphenyl)butyramide]	23	twice, threefold or more than fourfold	–
CCC(O)(C(N)=O)c1ccc(Cl)c(Cl)c1 (racemic) [Compound 3, DL-2-hydroxy-2-(3′,4′-dichlorophenyl)butyramide]	10	more than fivefold, sixfold or sevenfold	–
CCC(O)(C(N)=O)c1cccc(Br)c1 (racemic) [Compound 4, DL-2-hydroxy-2-(3′-bromophenyl)butyramide]	8	more than fivefold, sixfold or sevenfold	–
CCC(O)(C(N)=O)c1ccc(Br)cc1 (racemic) [Compound 5, DL-2-hydroxy-2-(4′-bromophenyl)butyramide]	8	more than fivefold, sixfold or sevenfold	–
CCC(O)(C(N)=O)c1cccc([N+](=O)[O-])c1 (racemic) [Compound 6, DL-2-hydroxy-2-(3′-nitrophenyl)butyramide]	36	twice, threefold or more than fourfold	–
CCC(O)(CC(N)=O)c1ccc(Cl)c(Cl)c1 (racemic) [Compound 7, DL-3-hydroxy-3-(3′,4′-dichlorophenyl)pentanamide]	16	twice, threefold or more than fourfold	–
CCC(O)(CC(N)=O)c1ccc(Br)cc1 (racemic) [Compound 8, DL-3-hydroxy-3-(4′-bromophenyl) pentanamide]	8	more than fivefold, sixfold or sevenfold	–
CCC(O)(CCC(N)=O)c1ccc(Cl)c(Cl)c1 (racemic) [Compound 9, DL-4-hydroxy-4-(3′,4′-dichlorophenyl)hexanamide]	12	twice, threefold or more than fourfold	–
CCC(O)(CCC(N)=O)c1ccc(Br)cc1 (racemic) [Compound 10, DL-4-hydroxy-4-(4′-bromophenyl)hexanamide]	9	more than fivefold, sixfold or sevenfold	–
CCC(O)(C(N)=O)c1ccccc1 (racemic) [DL-2-hydroxy-2-Phenyl butyramide, DL-2-hydroxy-2-phenylbutyramide]	–	–	protection against hippocampal kindling (hippocampal kindling [2]): protect cats and rats against hippocampal kindling; protection against seizures [3]: protect mice against seizures; protection against hippocampal kindling (hippocampal kindling [4]): protect cats and rats against hippocampal kindling; ED50 PTZ [1]: 58 mgkg^−1
CCC(O)(CC(N)=O)c1ccccc1 (racemic) [DL-3-hydroxy-3-Phenyl pentanamide, DL-3-hydroxy-3-phenylpentanamide]	–	–	protection against hippocampal kindling (hippocampal kindling [2]): protect cats and rats against hippocampal kindling; protection against seizures [3]: protect mice against seizures; focal spike activity (focal spike activity): significant decrease of focal spike activity; protection against γ-aminobutyric acid withdrawal syndrome [5]: protects rats against the γ-aminobutyric acid withdrawal syndrome; protection against hippocampal kindling (hippocampal kindling [4]): protect cats and rats against hippocampal kindling; ED50 PTZ [1]: 49 mgkg^−1
CCC(O)(CCC(N)=O)c1ccccc1 (racemic) [DL-4-hydroxy-4-Phenylhexanamide, DL-4-hydroxy-4-phenylhexanamide]	–	–	protection against hippocampal kindling (hippocampal kindling [2]): protect cats and rats against hippocampal kindling; protection against seizures [3]: protect mice against seizures; protection against hippocampal kindling (hippocampal kindling [4]): protect cats and rats against hippocampal kindling; ED50 PTZ [1]: 55 mgkg^−1
